Assay: xn = mol fraction of the nth substance listed
Conditions: 100 kPa, Liquid; for viscosity: Concentric cylinders viscometry; for mass density: Vibrating tube method

CCOC(=O)CCC(=O)OCC [diethyl butanedioate] + CCCO
Conditions | mass density [kg/m3] | viscosity [mPa·s]
288.15 K, x1 = 0.1 | 854.4 | 2.13
288.15 K, x1 = 0.2 | 891.88 | 2.009
288.15 K, x1 = 0.2999 | 922.67 | 2.025
288.15 K, x1 = 0.3998 | 948.47 | 2.105
288.15 K, x1 = 0.4999 | 970.46 | 2.214
288.15 K, x1 = 0.6001 | 989.43 | 2.341
288.15 K, x1 = 0.7001 | 1005.92 | 2.496
288.15 K, x1 = 0.8002 | 1020.45 | 2.69
288.15 K, x1 = 0.8997 | 1033.27 | 2.926
288.15 K, x1 = 1 | 1044.83 | 3.195
293.15 K, x1 = 0.1 | 850.08 | 1.889
293.15 K, x1 = 0.2 | 887.33 | 1.788
293.15 K, x1 = 0.2999 | 917.95 | 1.804
293.15 K, x1 = 0.3998 | 943.61 | 1.875
293.15 K, x1 = 0.4999 | 965.5 | 1.971
293.15 K, x1 = 0.6001 | 984.4 | 2.082
293.15 K, x1 = 0.7001 | 1000.83 | 2.215
293.15 K, x1 = 0.8002 | 1015.31 | 2.379
293.15 K, x1 = 0.8997 | 1028.1 | 2.578
293.15 K, x1 = 1 | 1039.63 | 2.807
298.15 K, x1 = 0.1 | 845.75 | 1.69
298.15 K, x1 = 0.2 | 882.77 | 1.608
298.15 K, x1 = 0.2999 | 913.21 | 1.622
298.15 K, x1 = 0.3998 | 938.75 | 1.684
298.15 K, x1 = 0.4999 | 960.54 | 1.767
298.15 K, x1 = 0.6001 | 979.36 | 1.866
298.15 K, x1 = 0.7001 | 995.74 | 1.983
298.15 K, x1 = 0.8002 | 1010.18 | 2.126
298.15 K, x1 = 0.8997 | 1022.93 | 2.297
298.15 K, x1 = 1 | 1034.44 | 2.491
303.15 K, x1 = 0.1 | 841.4 | 1.519
303.15 K, x1 = 0.2 | 878.18 | 1.452
303.15 K, x1 = 0.2999 | 908.46 | 1.465
303.15 K, x1 = 0.3998 | 933.87 | 1.518
303.15 K, x1 = 0.4999 | 955.57 | 1.593
303.15 K, x1 = 0.6001 | 974.32 | 1.682
303.15 K, x1 = 0.7001 | 990.64 | 1.787
303.15 K, x1 = 0.8002 | 1005.04 | 1.912
303.15 K, x1 = 0.8997 | 1017.76 | 2.061
303.15 K, x1 = 1 | 1029.25 | 2.229
308.15 K, x1 = 0.1 | 837.02 | 1.371
308.15 K, x1 = 0.2 | 873.57 | 1.316
308.15 K, x1 = 0.2999 | 903.69 | 1.328
308.15 K, x1 = 0.3998 | 928.98 | 1.376
308.15 K, x1 = 0.4999 | 950.59 | 1.444
308.15 K, x1 = 0.6001 | 969.27 | 1.524
308.15 K, x1 = 0.7001 | 985.54 | 1.619
308.15 K, x1 = 0.8002 | 999.9 | 1.731
308.15 K, x1 = 0.8997 | 1012.6 | 1.861
308.15 K, x1 = 1 | 1024.08 | 2.008
313.15 K, x1 = 0.1 | 832.6 | 1.248
313.15 K, x1 = 0.2 | 868.94 | 1.209
313.15 K, x1 = 0.2999 | 898.89 | 1.222
313.15 K, x1 = 0.3998 | 924.07 | 1.265
313.15 K, x1 = 0.4999 | 945.59 | 1.325
313.15 K, x1 = 0.6001 | 964.21 | 1.398
313.15 K, x1 = 0.7001 | 980.44 | 1.484
313.15 K, x1 = 0.8002 | 994.77 | 1.586
313.15 K, x1 = 0.8997 | 1007.44 | 1.7
313.15 K, x1 = 1 | 1018.9 | 1.821
318.15 K, x1 = 0.1 | 828.14 | 1.128
318.15 K, x1 = 0.2 | 864.27 | 1.096
318.15 K, x1 = 0.2999 | 894.07 | 1.11
318.15 K, x1 = 0.3998 | 919.14 | 1.15
318.15 K, x1 = 0.4999 | 940.58 | 1.206
318.15 K, x1 = 0.6001 | 959.14 | 1.274
318.15 K, x1 = 0.7001 | 975.33 | 1.352
318.15 K, x1 = 0.8002 | 989.62 | 1.443
318.15 K, x1 = 0.8997 | 1002.28 | 1.545
318.15 K, x1 = 1 | 1013.72 | 1.66
323.15 K, x1 = 0.1 | 823.65 | 1.029
323.15 K, x1 = 0.2 | 859.57 | 1.006
323.15 K, x1 = 0.2999 | 889.22 | 1.025
323.15 K, x1 = 0.3998 | 914.18 | 1.065
323.15 K, x1 = 0.4999 | 935.55 | 1.118
323.15 K, x1 = 0.6001 | 954.05 | 1.18
323.15 K, x1 = 0.7001 | 970.21 | 1.251
323.15 K, x1 = 0.8002 | 984.48 | 1.334
323.15 K, x1 = 0.8997 | 997.12 | 1.425
323.15 K, x1 = 1 | 1008.55 | 1.523

— the NIST ThermoML archive (doi:10.1016/j.jct.2016.06.016)
